# According to the supplement of paper PMC10307832:
# Experiments:
# Experiment in all cases: relative viability (nuclei count vs DMSO), 5 days (fraction); higher = more cells survive
# [1] = compound: C1=CC(=CC=C1C2=CC(=C(S2)NC(=O)N)C(=O)N)F [TPCA-1] + Cc1nc(NC(=O)N2CCC[C@H]2C(N)=O)sc1-c1ccnc(C(C)(C)C(F)(F)F)c1 [Alpelisib] (partner 2 µM)
# In short: (§1)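 Dosing by pin tool came one day after lung cancer cell lines were seeded in 1536-well plates, using either one drug or a fixed anchor-drug dose plus five library-drug doses (not always all listed) in √10 steps. After 5 days, nuclei were counted on 4× images. Relative viability is treated-well nuclei count divided by vehicle-well nuclei count, and values are medians of duplicate plates.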
# [2] = compound: C1/C(=C\C2=CC=CS2)/C(=O)/C(=C/C3=CC=CS3)/C1 + O=C(c1cc(Cc2n[nH]c(=O)c3ccccc23)ccc1F)N1CCN(C(=O)C2CC2)CC1 [Olaparib] (partner 8 µM)
# In short: as §1
# [3] = compound: C1=CC(=CC=C1C2=CC(=C(S2)NC(=O)N)C(=O)N)F [TPCA-1] + Cc1nc(Nc2ncc(C(=O)Nc3c(C)cccc3Cl)s2)cc(N2CCN(CCO)CC2)n1 [Dasatinib] (partner 0.075 µM)
# In short: as §1
# [4] = compound: C1/C(=C\C2=CC=CS2)/C(=O)/C(=C/C3=CC=CS3)/C1 + C[C@]1(O)C[C@@H](c2nc(-c3ccc4ccc(-c5ccccc5)nc4c3)c3c(N)nccn32)C1 [Linsitinib] (partner 1 µM)
# In short: as §1
Cell Line,relative viability ([1]; first compound 0.04 µM),relative viability ([1]; first compound 0.1265 µM),relative viability ([1]; first compound 0.4 µM),relative viability ([1]; first compound 1.265 µM),relative viability ([1]; first compound 4 µM),relative viability ([2]; first compound 0.2 µM),relative viability ([2]; first compound 0.6325 µM),relative viability ([2]; first compound 2 µM),relative viability ([2]; first compound 6.325 µM),relative viability ([2]; first compound 20 µM),relative viability ([3]; first compound 0.04 µM),relative viability ([3]; first compound 0.1265 µM),relative viability ([3]; first compound 0.4 µM),relative viability ([3]; first compound 1.265 µM),relative viability ([3]; first compound 4 µM),relative viability ([4]; first compound 0.2 µM),relative viability ([4]; first compound 0.6325 µM),relative viability ([4]; first compound 2 µM),relative viability ([4]; first compound 6.325 µM),relative viability ([4]; first compound 20 µM)
NCI-H2170,0.906,0.697,0.803,0.733,0.526,0.619,0.645,0.595,0.422,0.536,0.676,0.56,0.632,0.581,0.269,–,–,–,–,–
HCC-366,0.481,0.362,0.352,0.378,0.185,0.382,0.35,0.41,0.269,0.353,0.729,0.55,0.664,0.539,0.233,0.701,0.574,0.647,0.467,0.6
NCI-H2347,1.14,0.969,1.03,0.817,0.917,0.623,0.581,0.593,0.521,0.63,0.296,0.277,0.26,0.258,0.262,0.918,0.953,0.922,0.891,0.938
COR-L 105,1.07,0.892,0.987,0.919,0.898,0.753,0.757,0.646,0.434,0.618,0.307,0.361,0.345,0.225,0.204,0.976,0.905,0.939,0.766,0.878
201T,1,0.998,1.01,1.08,0.983,0.866,0.856,0.858,0.775,0.84,0.577,0.601,0.569,0.576,0.556,1.08,0.989,1.16,0.9,0.996
NCI-H2126,0.759,0.673,0.753,0.786,0.596,0.951,0.926,0.883,0.882,0.85,0.617,0.531,0.602,0.549,0.437,0.673,0.698,0.754,0.553,0.709
LC-2-ad,0.937,0.775,0.99,0.82,0.326,0.73,0.728,0.684,0.577,0.713,0.79,0.417,0.544,0.524,0.212,0.832,0.838,0.875,0.69,0.847
NCI-H2085,0.935,0.903,1,0.939,0.933,0.764,0.774,0.808,0.709,0.765,0.267,0.262,0.246,0.265,0.257,1.05,0.941,0.805,0.797,1.05
NCI-H358,1,0.65,0.911,0.55,0.364,0.862,0.715,0.657,0.443,0.492,0.193,0.135,0.173,0.152,0.117,0.887,0.757,0.821,0.644,0.809
H3255,0.784,0.655,0.642,0.529,0.554,0.635,0.59,0.635,0.509,0.535,0.421,0.352,0.431,0.305,0.301,0.949,0.92,0.909,0.728,0.913
NCI-H2228,0.869,0.809,1.02,0.609,0.485,0.69,0.431,0.606,0.543,0.482,0.669,0.491,0.521,0.386,0.301,0.764,0.628,1.16,0.563,0.631
CAL-12T,1.22,0.907,0.93,1.1,0.707,0.691,0.749,0.742,0.648,0.733,0.361,0.486,0.571,0.304,0.154,0.837,0.964,0.764,0.744,0.92
A-427,1.13,1.04,1.14,1.06,1.06,0.802,0.797,0.762,0.467,0.786,0.752,0.621,0.795,0.745,0.454,1.14,1.12,1.11,1.06,1.15
HARA,0.952,0.675,1.01,0.725,0.6,1.11,0.862,0.944,0.716,0.83,0.298,0.289,0.298,0.257,0.231,0.968,1.06,0.898,0.242,0.902
NCI-H1793,0.724,0.646,0.735,0.828,0.566,0.904,0.931,0.978,0.782,0.893,0.422,–,0.342,0.365,0.211,0.815,0.855,0.913,0.855,0.685
NCI-H1623,–,–,–,–,–,–,–,–,–,–,0.523,0.466,0.576,0.62,0.336,–,–,–,–,–
NCI-H2009,1.2,1.13,1.13,1.1,1.2,0.71,0.683,0.701,–,0.707,0.395,0.267,0.278,0.223,0.177,1.28,1.2,1.15,0.712,1.13
ABC-1,1.38,0.98,0.847,0.967,0.591,1.02,0.984,1.11,0.842,0.779,0.485,0.493,0.614,0.495,0.381,0.931,0.879,0.882,0.671,0.802
IA-LM,0.912,0.619,0.729,0.892,0.677,0.874,0.871,0.755,0.618,0.879,–,–,–,–,–,0.623,0.895,0.623,0.616,0.523

Cell Line,relative viability ([1]; first compound 0.04 µM),relative viability ([1]; first compound 0.1265 µM),relative viability ([1]; first compound 0.4 µM),relative viability ([1]; first compound 1.265 µM),relative viability ([1]; first compound 4 µM),relative viability ([2]; first compound 0.2 µM),relative viability ([2]; first compound 0.6325 µM),relative viability ([2]; first compound 2 µM),relative viability ([2]; first compound 6.325 µM),relative viability ([2]; first compound 20 µM),relative viability ([3]; first compound 0.04 µM),relative viability ([3]; first compound 0.1265 µM),relative viability ([3]; first compound 0.4 µM),relative viability ([3]; first compound 1.265 µM),relative viability ([3]; first compound 4 µM),relative viability ([4]; first compound 0.2 µM),relative viability ([4]; first compound 0.6325 µM),relative viability ([4]; first compound 2 µM),relative viability ([4]; first compound 6.325 µM),relative viability ([4]; first compound 20 µM)
NCI-H322M,0.846,0.74,0.764,0.688,0.785,0.827,0.776,0.822,0.783,0.762,0.267,0.261,0.244,0.281,0.238,0.995,0.909,1.11,0.81,0.845
NCI-H1792,0.733,0.714,0.646,0.675,0.389,0.499,0.492,0.627,0.279,0.474,0.8,0.715,0.765,0.678,0.624,0.523,0.618,0.617,–,0.451
LXF-289,1.07,0.951,1.05,0.955,0.783,1.06,1.07,1.06,0.936,1.02,0.24,0.225,0.267,0.134,0.104,0.981,1.03,0.922,0.912,0.984
HCC-827,1.09,0.933,1.08,0.905,0.491,0.589,0.582,0.72,0.646,0.597,0.299,0.199,0.391,0.293,0.155,1.05,0.953,0.923,0.929,0.903
EMC-BAC-2,0.791,0.705,0.721,0.724,0.589,0.51,0.495,0.484,0.424,0.514,0.364,0.352,0.368,0.46,0.343,0.811,0.787,0.84,0.761,0.792
NCI-H520,0.869,0.783,0.844,0.892,0.788,0.316,0.34,0.324,–,0.35,0.219,0.187,0.223,0.18,0.176,0.953,1.09,0.941,1.02,0.795
SW 900,–,–,–,–,–,0.752,0.839,0.87,0.882,0.99,0.768,0.526,0.685,0.307,0.583,–,–,–,–,–
NCI-H1299,1.11,1.09,1.05,1.04,1.1,1.01,0.969,0.953,0.817,0.962,–,–,–,–,–,1.02,1.04,0.933,0.789,0.956
NCI-H1563,0.976,0.932,0.897,0.993,0.911,–,–,–,–,–,0.42,0.453,0.468,0.455,0.452,1.43,1.16,1.28,0.893,1.08
NCI-H1650,–,–,–,–,–,0.854,0.793,0.734,0.69,0.717,0.361,–,0.336,0.269,0.269,–,–,–,–,–
Calu-6,0.982,0.988,1.04,0.85,0.539,0.548,0.595,0.55,0.586,0.524,–,–,–,–,–,1.05,1.05,0.94,0.921,0.835
NCI-H1703,0.336,0.3,0.304,0.233,0.207,0.547,0.54,0.536,0.423,0.574,–,–,–,–,–,1.42,0.978,0.633,0.887,0.725
EBC-1,0.843,0.77,0.892,0.933,0.626,0.687,0.754,0.652,0.593,0.69,–,–,–,–,–,0.904,0.973,0.887,0.801,0.942
NCI-H2342,–,–,–,–,–,0.392,0.464,0.454,0.419,0.435,0.323,0.323,0.276,0.241,0.294,–,–,–,–,–
ChaGo-K-1,–,–,–,–,–,0.407,0.413,0.381,0.233,0.169,0.754,0.594,0.705,0.561,0.218,–,–,–,–,–
HCC-44,0.876,0.765,0.838,0.703,0.66,0.959,0.985,0.907,0.896,0.989,–,–,–,–,–,0.633,0.748,0.693,0.592,0.655
NCI-H1648,–,–,–,–,–,0.855,0.81,1.03,0.792,0.814,–,–,–,–,–,–,–,–,–,–
NCI-H522,–,–,–,–,–,0.626,0.643,0.657,0.625,0.742,0.993,0.833,1.11,0.844,0.788,–,–,–,–,–
A549,0.891,0.824,0.911,0.736,0.296,0.352,0.283,0.642,0.286,0.354,–,–,–,–,–,0.636,0.556,0.628,0.516,0.567
